Reference: BindingDB's records for doi:10.1016/j.chembiol.2003.08.010 (Brigham and Women's Hospital, 2003)

How the values were obtained:
[1] = molecular target: T1, Ubiquitin carboxyl-terminal hydrolase isozyme L1 (Mus musculus, UniProt Q9R0P9); test: Inhibition Activity Assay; settings: pH 7.6; 25 °C
T1 sequence (Q9R0P9 whole entry): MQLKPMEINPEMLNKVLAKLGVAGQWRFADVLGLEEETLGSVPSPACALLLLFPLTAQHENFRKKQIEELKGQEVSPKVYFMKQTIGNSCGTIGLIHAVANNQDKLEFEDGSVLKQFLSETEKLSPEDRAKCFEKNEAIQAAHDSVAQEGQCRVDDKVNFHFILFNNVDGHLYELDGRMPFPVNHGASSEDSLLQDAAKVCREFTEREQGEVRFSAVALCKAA
From the text: (§1) Inhibition activity and selectivity for UCH-L1 and UCH-L3.

[2] = molecular target: T2, Ubiquitin carboxyl-terminal hydrolase isozyme L3 (Mus musculus, UniProt Q9JKB1); test: Inhibition Activity Assay; settings: pH 7.6; 25 °C
T2 sequence (Q9JKB1 whole entry): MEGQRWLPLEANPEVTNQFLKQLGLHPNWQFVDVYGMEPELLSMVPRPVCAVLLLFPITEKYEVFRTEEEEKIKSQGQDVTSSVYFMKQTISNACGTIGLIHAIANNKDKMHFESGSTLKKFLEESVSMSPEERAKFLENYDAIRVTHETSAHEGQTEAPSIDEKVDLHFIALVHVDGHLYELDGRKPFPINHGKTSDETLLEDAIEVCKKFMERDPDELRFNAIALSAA
From the text: as §1

Row | Compound | IC50 [1] | IC50 [2]
1 | COc1ccc(NC(=O)c2[nH]cnc2C(=O)N[C@@H](CC(C)C)C(=O)OC(C)(C)C)cc1 [(2S)-2-[[4-[(4-methoxyphenyl)carbamoyl]-1H-imidazole-5-carbonyl]amino]-4-methyl-valeric acid tert-butyl ester] | 27 µM | 48 µM
2 | CC(C)(C)OC(=O)NCCCC[C@H](NC(=O)c1[nH]cnc1C(=O)Nc1ccc(Cl)cc1)C(=O)OC(C)(C)C [(2S)-2-[[[4-[(4-chloroanilino)-oxomethyl]-1H-imidazol-5-yl]-oxomethyl]amino]-6-[[(2-methylpropan-2-yl)oxy-oxomethyl]amino]hexanoic acid tert-butyl ester] | 19 µM | 58 µM
3 | Cc1ccc(NC(=O)c2[nH]cnc2C(=O)N[C@@H](CCCCNC(=O)OC(C)(C)C)C(=O)OC(C)(C)C)cc1 [(2S)-6-(tert-butoxycarbonylamino)-2-[[4-(p-tolylcarbamoyl)-1H-imidazole-5-carbonyl]amino]hexanoic acid tert-butyl ester] | 6 µM | 32 µM
4 | CCC1=NN(C(=O)c2ccccc2O)C(O)(c2ccccc2)C1 (stereo not drawn) [(3-ethyl-5-hydroxy-5-phenyl-4H-pyrazol-1-yl)-(2-hydroxyphenyl)methanone] | 3.4 µM | 72 µM
5 | CCCCn1c(=O)c(C(=O)NCc2ccccc2Cl)c(O)c2ccccc21 [MLS001202596] | 17 µM | 41 µM
6 | Cc1nc(N=NC(C)c2ccc(Br)cc2)cc(N2CCCCC2)n1 (stereo not drawn) [N-[1-(4-bromophenyl)ethylideneamino]-2-methyl-6-piperidin-1-ylpyrimidin-4-amine] | 2.6 µM | 16 µM
7 | COc1ccc(N(CC(=O)NCCSCc2cccc(Cl)c2)S(C)(=O)=O)cc1Cl [N-[2-[(3-chlorobenzyl)thio]ethyl]-2-(3-chloro-N-mesyl-4-methoxy-anilino)acetamide] | 1.3 µM | 22 µM
8 | COc1ccc(-n2c(C=Cc3ccc(O)c(OC)c3)nc3ccccc3c2=O)cc1 [SMR000516541] | 12 µM | 52 µM
9 | Cc1cccc(NC(=O)c2nc[nH]c2C(=O)N[C@@H](CC(C)C)C(=O)OCc2ccccc2)c1 [benzyl (2S)-4-methyl-2-[[4-[(3-methylphenyl)carbamoyl]-1H-imidazole-5-carbonyl]amino]pentanoate] | 12 µM | 33 µM
10 | CCOC(=O)C1=C(C)N=c2s/c(=C\c3ccc(O)c([N+](=O)[O-])c3)c(=O)n2C1c1ccccc1OC (stereo not drawn) [ethyl 2-[(4-hydroxy-3-nitrophenyl)methylidene]-5-(2-methoxyphenyl)-7-methyl-3-oxo-5H-[1,3]thiazolo[3,2-a]pyrimidine-6-carboxylate] | 1.8 µM | 40 µM
11 | Cc1cccc(NC(=O)c2nc[nH]c2C(=O)N[C@@H](Cc2ccccc2)C(=O)OC(C)(C)C)c1 [tert-butyl (2S)-2-[[4-[(3-methylphenyl)carbamoyl]-1H-imidazole-5-carbonyl]amino]-3-phenylpropanoate] | 12 µM | 52 µM

Second part, the compound after the results:

Row | IC50 [1] | IC50 [2] | Compound
12 | 3.4 µM | 47 µM | Oc1ccc(Oc2ccc(Oc3ccc(O)cc3)cc2)cc1 [MLS001162917]
13 | 16 µM | 24 µM | CC(C)(C)OC(=O)[C@H](Cc1ccccc1)NC(=O)c1[nH]cnc1C(=O)Nc1ccc(Cl)cc1 [SMR000465882]
14 | 290 µM | 71 µM | CC1=CC(=O)c2ccccc2C1=O [Vitamin K3]
